Results as given in ChEMBL document CHEMBL2021908, “Identification of novel isocytosine derivatives as xanthine oxidase inhibitors from a set of virtual screening hits” (Bioorg Med Chem, 2012).
pIC50: −log10 of the molar value.

Columns and labels:
[1] = system: Rattus norvegicus; assay: Antihyperuricemic activity in Sprague-Dawley rat assessed as decrease of potassium oxonate-induced uric acid level in serum at 100 mg/kg, po administered 1 hr post potassium oxonate challenge measured after 4 hrs by photometric analysis relative to control; assay type: functional; set-up: scale not given: the % may be the effect or the level left
[2] = molecular target: T1, Xanthine dehydrogenase/oxidase (Bos taurus, UniProt P80457); assay: Inhibition of bovine xanthine oxidase assessed as uric acid formation using xanthine as substrate after 30 mins by spectrophotometric analysis
[3] = molecular target: T1, Xanthine dehydrogenase/oxidase; assay: Inhibition of bovine xanthine oxidase assessed as uric acid formation using xanthine as substrate at 100 uM after 30 mins by spectrophotometric analysis; conditions: cattle, 0.5 h
[4] = system: Rattus norvegicus; assay: Antihyperuricemic activity in Sprague-Dawley rat assessed as decrease of potassium oxonate-induced uric acid level in serum at 50 mg/kg, ip administered 1 hr post potassium oxonate challenge measured after 4 hrs by photometric analysis relative to control; assay type: functional; set-up: scale not given: the % may be the effect or the level left; conditions: route intraperitoneal
[5] = system: Rattus norvegicus; assay: Antihyperuricemic activity in Sprague-Dawley rat assessed as decrease of potassium oxonate-induced uric acid level in serum at 10 mg/kg, po administered 1 hr post potassium oxonate challenge measured after 4 hrs by photometric analysis relative to control; set-up: scale not given: the % may be the effect or the level left
[6] = molecular target: T1, Xanthine dehydrogenase/oxidase; assay: Inhibition of bovine xanthine oxidase assessed as uric acid formation using xanthine as substrate at 10 uM after 30 mins by spectrophotometric analysis; conditions: cattle, 0.5 h

T1 sequence (P80457 whole entry): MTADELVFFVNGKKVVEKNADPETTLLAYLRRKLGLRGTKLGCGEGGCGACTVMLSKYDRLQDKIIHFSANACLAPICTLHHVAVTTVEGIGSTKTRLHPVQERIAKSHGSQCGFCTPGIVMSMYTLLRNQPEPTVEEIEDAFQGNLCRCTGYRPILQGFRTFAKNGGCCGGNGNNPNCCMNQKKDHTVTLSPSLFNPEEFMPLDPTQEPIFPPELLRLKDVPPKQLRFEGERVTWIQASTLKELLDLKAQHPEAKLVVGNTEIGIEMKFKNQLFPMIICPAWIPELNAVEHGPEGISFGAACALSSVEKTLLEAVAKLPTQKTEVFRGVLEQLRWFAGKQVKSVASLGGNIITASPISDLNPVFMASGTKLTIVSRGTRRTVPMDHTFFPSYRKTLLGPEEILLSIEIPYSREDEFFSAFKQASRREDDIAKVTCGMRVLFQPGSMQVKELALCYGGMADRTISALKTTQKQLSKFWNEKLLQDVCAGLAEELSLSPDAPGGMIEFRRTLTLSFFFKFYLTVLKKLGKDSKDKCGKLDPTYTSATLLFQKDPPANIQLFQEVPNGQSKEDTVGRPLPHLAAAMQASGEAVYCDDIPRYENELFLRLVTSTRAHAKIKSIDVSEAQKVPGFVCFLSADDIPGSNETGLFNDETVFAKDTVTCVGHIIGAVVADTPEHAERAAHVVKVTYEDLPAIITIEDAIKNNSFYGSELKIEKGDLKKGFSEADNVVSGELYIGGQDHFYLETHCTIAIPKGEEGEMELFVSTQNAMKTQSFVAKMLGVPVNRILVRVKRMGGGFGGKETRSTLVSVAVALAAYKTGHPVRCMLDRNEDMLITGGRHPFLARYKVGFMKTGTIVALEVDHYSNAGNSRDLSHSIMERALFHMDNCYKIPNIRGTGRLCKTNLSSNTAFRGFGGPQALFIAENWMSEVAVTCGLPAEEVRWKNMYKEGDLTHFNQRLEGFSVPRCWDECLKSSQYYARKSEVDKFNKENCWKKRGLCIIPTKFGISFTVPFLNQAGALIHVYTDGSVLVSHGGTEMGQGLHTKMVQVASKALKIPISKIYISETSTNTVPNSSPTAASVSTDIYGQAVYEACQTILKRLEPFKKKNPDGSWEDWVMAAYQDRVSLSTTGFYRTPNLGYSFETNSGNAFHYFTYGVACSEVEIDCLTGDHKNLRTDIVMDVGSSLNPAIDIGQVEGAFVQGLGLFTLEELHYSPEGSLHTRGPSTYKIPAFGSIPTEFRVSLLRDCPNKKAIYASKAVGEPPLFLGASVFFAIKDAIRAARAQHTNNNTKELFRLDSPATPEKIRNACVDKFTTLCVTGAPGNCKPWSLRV

Compound: COc1ccc(-c2cc(O)nc(N)n2)cc1
- Activity [1]: 84%

Compound: COc1ccc(-c2cc(NS(C)(=O)=O)nc(N)n2)cc1
- pIC50 [2]: < 4.00

Compound: COc1cc2c(cc1OC)-c1n[nH]c(=O)n1CC2
- inhibition at 100 µM [3]: 0%

Compound: O=C(O)c1ccc(-n2ccnc2)c([N+](=O)[O-])c1
- inhibition at 100 µM [3]: 0%

Compound: COc1ccc(-c2cc(O)nc(O)n2)cc1
- inhibition at 100 µM [3]: 0%
- pIC50 [2]: < 4.00

Compound: COc1ccc(-c2cc(O)nc(N)n2)cc1OC
- Activity [4]: 57%

Compound: Oc1ncnc2[nH]ncc12 [ALLOPURINOL]
- Activity [5]: 184%
- inhibition at 10 µM [6]: 100%

Compound: Cc1nc(-c2ccc(OCC(C)C)c(C#N)c2)sc1C(=O)O [FEBUXOSTAT]
- Activity [5]: 209%

Compound: COC(=O)c1cc(C)c2c(c1)S(=O)(=O)Cc1cc(NN)cc(Cl)c1O2
- inhibition at 100 µM [3]: 0%

Compound: COc1ccc(-c2cc(C(F)(F)F)nc(N)n2)cc1
- pIC50 [2]: < 4.00

Compound: O=C1C(=CNNc2ccccc2)C(=O)N(c2ccc(Cl)cc2)C(=S)N1c1ccc(Cl)cc1
- inhibition at 100 µM [3]: 0%
